In ChEMBL document CHEMBL3217615, “Novel 3,5-bis(arylidiene)-4-piperidone based monocarbonyl analogs of curcumin: anticancer activity evaluation and mode of action study” (2014):

Key:
Type in all cases: functional
M14 = test: Growth inhibition of human M14 cells assessed as cell growth at 10^-8 M after 48 hrs by sulforhodamine B assay; details: M14, 48 h; for growth at 0.01 µM: read-out: Activity; for CC50: read-out: pLC50 (the source's name) (converted); for TGI: read-out: pTGI (converted)
COLO 205 [1] = test: Induction of apoptosis in human COLO205 cells assessed as viable cells level at 10 uM after 24 hrs by Annexin V/propidium iodide staining-based fluorescence microscopy
DU-145 [2] = test: Growth inhibition of human DU145 cells assessed as cell growth at 10^-7 M after 48 hrs by sulforhodamine B assay; details: DU-145, 48 h, read-out: Activity
[3] = Growth inhibition of human NCI-ADR-RES cells assessed as cell growth at 10^-6 M after 48 hrs by sulforhodamine B assay; details: read-out: Activity
SN12C = test: Growth inhibition of human SN12C cells assessed as cell growth at 10^-8 M after 48 hrs by sulforhodamine B assay; details: for growth at 0.01 µM: read-out: Activity; for TGI: read-out: pTGI (converted)
SF-268 = test: Growth inhibition of human SF268 cells assessed as cell growth at 10^-4 M after 48 hrs by sulforhodamine B assay; details: SF-268, 48 h, read-out: Activity
[4] = Growth inhibition of human SF295 cells assessed as cell growth at 10^-5 M after 48 hrs by sulforhodamine B assay; details: SF-295, 48 h, read-out: Activity
MDA-MB-231 = test: Growth inhibition of human MDA-MB-231 cells assessed as cell growth at 10^-8 M after 48 hrs by sulforhodamine B assay; details: MDA-MB-231, 48 h; for growth at 0.01 µM: read-out: Activity; for TGI: read-out: pTGI (converted)
SK-MEL-5 = test: Growth inhibition of human SK-MEL-5 cells assessed as cell growth at 10^-4 M after 48 hrs by sulforhodamine B assay; details: SK-MEL-5, 48 h, read-out: Activity
PC-3 [5] = test: Growth inhibition of human PC3 cells after 48 hrs by sulforhodamine B assay; details: PC-3, 48 h; for CC50: read-out: LC50 (the source's name)
T47D = test: Growth inhibition of human T47D cells assessed as cell growth at 10^-7 M after 48 hrs by sulforhodamine B assay; details: read-out: Activity
CAKI-1 = test: Growth inhibition of human CAKI-1 cells after 48 hrs by sulforhodamine B assay; details: CAKI-1, 48 h; for CC50: read-out: LC50 (the source's name)
COLO 205 [6] = test: Growth inhibition of human COLO205 cells assessed as cell growth at 10^-6 M after 48 hrs by sulforhodamine B assay; details: COLO 205, 48 h, read-out: Activity
PC-3 [7] = test: Growth inhibition of human PC3 cells assessed as cell growth at 10^-7 M after 48 hrs by sulforhodamine B assay; details: PC-3, 48 h, read-out: Activity
786-0 = test: Growth inhibition of human 786-0 cells assessed as cell growth at 10^-7 M after 48 hrs by sulforhodamine B assay; details: 786-0, 48 h, read-out: Activity
IGROV-1 = test: Growth inhibition of human IGROV1 cells assessed as cell growth at 10^-8 M after 48 hrs by sulforhodamine B assay; details: IGROV-1, 48 h; for growth at 0.01 µM: read-out: Activity; for TGI: read-out: pTGI (converted)
[8] = Growth inhibition of human OVCAR5 cells assessed as cell growth at 10^-6 M after 48 hrs by sulforhodamine B assay; details: OVCAR-5, 48 h, read-out: Activity
COLO 205 [9] = test: Induction of apoptosis in human COLO205 cells assessed as early apoptosis cells level at 10 uM after 24 hrs by Annexin V/propidium iodide staining-based fluorescence microscopy
NCI-H226 = test: Growth inhibition of human NCI-H226 cells assessed as cell growth at 10^-7 M after 48 hrs by sulforhodamine B assay; details: NCI-H226, 48 h, read-out: Activity
MDA-MB-468 [10] = test: Growth inhibition of human MDA-MB-468 cells assessed as cell growth at 10^-4 M after 48 hrs by sulforhodamine B assay; details: MDA-MB-468, 48 h, read-out: Activity
MDA-MB-435 = test: Growth inhibition of human MDA-MB-435 cells assessed as cell growth at 10^-6 M after 48 hrs by sulforhodamine B assay; details: MDA-MB-435, 48 h, read-out: Activity
Malme-3M = test: Growth inhibition of human MALME-3M cells assessed as cell growth at 10^-7 M after 48 hrs by sulforhodamine B assay; details: read-out: Activity
COLO 205 [11] = test: Induction of apoptosis in human COLO205 cells at 10 uM after 24 hrs by Annexin V/propidium iodide staining-based fluorescence microscopy
K562 = test: Growth inhibition of human K562 cells assessed as cell growth at 10^-7 M after 48 hrs by sulforhodamine B assay; details: K562, 48 h, read-out: Activity
A498 = test: Growth inhibition of human A498 cells assessed as cell growth at 10^-7 M after 48 hrs by sulforhodamine B assay; details: A498, 48 h, read-out: Activity
[12] = Growth inhibition of human UO31 cells assessed as cell growth at 10^-8 M after 48 hrs by sulforhodamine B assay; details: UO-31, 48 h; for growth at 0.01 µM: read-out: Activity; for TGI: read-out: pTGI (converted)
U-251 = test: Growth inhibition of human U251 cells assessed as cell growth at 10^-6 M after 48 hrs by sulforhodamine B assay; details: U-251, 48 h, read-out: Activity
[13] = Growth inhibition of human RXF393 cells assessed as cell growth at 10^-6 M after 48 hrs by sulforhodamine B assay; details: RXF 393, 48 h, read-out: Activity
[14] = Growth inhibition of human UACC257 cells assessed as cell growth at 10^-6 M after 48 hrs by sulforhodamine B assay; details: UACC-257, 48 h, read-out: Activity
DU-145 [15] = test: Growth inhibition of human DU145 cells assessed as cell growth at 10^-8 M after 48 hrs by sulforhodamine B assay; details: DU-145, 48 h; for growth at 0.01 µM: read-out: Activity; for TGI: read-out: pTGI (converted)
A549 = test: Growth inhibition of human A549/ATCC cells assessed as cell growth at 10^-4 M after 48 hrs by sulforhodamine B assay; details: A549, 48 h, read-out: Activity
HOP-62 = test: Growth inhibition of human HOP62 cells assessed as cell growth at 10^-6 M after 48 hrs by sulforhodamine B assay; details: HOP-62, 48 h, read-out: Activity
MDA-MB-468 [16] = test: Growth inhibition of human MDA-MB-468 cells assessed as cell growth at 10^-6 M after 48 hrs by sulforhodamine B assay; details: MDA-MB-468, 48 h, read-out: Activity

`Cc1ccc(S(=O)(=O)N2C/C(=C\c3cc(F)cc(F)c3)C(=O)/C(=C/c3cc(F)cc(F)c3)C2)cc1` gave a GI50 (M14) of 0.363 µM, a growth at 0.01 µM (M14) of 103% and a CC50 (M14) of 5.89 µM. It also gave a TGI (M14) of 1.41 µM, an Activity (COLO 205 [1]) of 24% and a growth at 0.1 µM (DU-145 [2]) of 111%. For the same compound, the growth at 1 µM [3] was 19%, the GI50 (SN12C) was 0.339 µM and the LC50 (SN12C) was 4.27 µM. For the same compound, the growth at 0.01 µM (SN12C) was 95%, the TGI (SN12C) was 1.32 µM and the growth at 100 µM (SF-268) was -88%. For the same compound, the growth at 10 µM [4] was -44%, the GI50 (MDA-MB-231) was 0.269 µM and the LC50 (MDA-MB-231) was 8.51 µM. The growth at 0.01 µM (MDA-MB-231) was 98%, the TGI (MDA-MB-231) was 0.776 µM and the growth at 100 µM (SK-MEL-5) was -97%. The GI50 (PC-3 [5]) was 0.248 µM, the TGI (PC-3 [5]) was 0.803 µM and the CC50 (PC-3 [5]) was 9.28 µM. The growth at 0.1 µM (T47D) was 101%, the GI50 (CAKI-1) was 0.365 µM and the TGI (CAKI-1) was 2.43 µM. The CC50 (CAKI-1) was 61.9 µM, the growth at 1 µM (COLO 205 [6]) was 35% and the growth at 0.1 µM (PC-3 [7]) was 89%. It also gave a growth at 0.1 µM (786-0) of 104%, a GI50 (IGROV-1) of 0.437 µM and an LC50 (IGROV-1) of 5.13 µM. It also gave a growth at 0.01 µM (IGROV-1) of 106%, a TGI (IGROV-1) of 1.55 µM and a growth at 1 µM [8] of 51%. The Activity (COLO 205 [9]) was 30%, the growth at 0.1 µM (NCI-H226) was 94% and the growth at 100 µM (MDA-MB-468 [10]) was -79%. For the same compound, the growth at 1 µM (MDA-MB-435) was -18%, the growth at 0.1 µM (Malme-3M) was 101% and the Activity (COLO 205 [11]) was 70%. For the same compound, the growth at 0.1 µM (K562) was 44%, the growth at 0.1 µM (A498) was 93% and the GI50 [12] was 1.1 µM. For the same compound, the LC50 [12] was 5.13 µM, the growth at 0.01 µM [12] was 91% and the TGI [12] was 2.34 µM. It also gave a growth at 1 µM (U-251) of -31%, a growth at 1 µM [13] of 44% and a growth at 1 µM [14] of 49%. The GI50 (DU-145 [15]) was 1.23 µM, the LC50 (DU-145 [15]) was 7.59 µM and the growth at 0.01 µM (DU-145 [15]) was 106%. The TGI (DU-145 [15]) was 3.09 µM, the growth at 100 µM (A549) was -34% and the growth at 1 µM (HOP-62) was 93%. For the same compound, the growth at 1 µM (MDA-MB-468 [16]) was 22%.

Work on `O=C1/C(=C/c2ccc(Cl)cc2Cl)CN(S(=O)(=O)c2ccccc2)C/C1=C\c1ccc(Cl)cc1Cl` yielded a GI50 (M14) of 3.63 µM, a growth at 0.01 µM (M14) of 102% and a CC50 (M14) of over 100 µM. It also gave a TGI (M14) of over 100 µM, an Activity (COLO 205 [1]) of 29% and a growth at 0.1 µM (DU-145 [2]) of 110%. For the same compound, the growth at 1 µM [3] was 54%, the GI50 (SN12C) was 0.245 µM and the LC50 (SN12C) was over 100 µM. For the same compound, the growth at 0.01 µM (SN12C) was 93%, the TGI (SN12C) was 0.724 µM and the growth at 100 µM (SF-268) was 4%. It also gave a growth at 10 µM [4] of -3%, a GI50 (MDA-MB-231) of 0.468 µM and a growth at 0.01 µM (MDA-MB-231) of 102%. For the same compound, the TGI (MDA-MB-231) was 2.14 µM, the growth at 100 µM (SK-MEL-5) was 60% and the GI50 (PC-3 [5]) was 0.291 µM. It also gave a TGI (PC-3 [5]) of 1.03 µM, a CC50 (PC-3 [5]) of over 100 µM and a growth at 0.1 µM (T47D) of 96%. It also gave a GI50 (CAKI-1) of 1.84 µM, a TGI (CAKI-1) of 5.75 µM and a CC50 (CAKI-1) of over 100 µM. The growth at 1 µM (COLO 205 [6]) was 16%, the growth at 0.1 µM (PC-3 [7]) was 93% and the growth at 0.1 µM (786-0) was 104%. It also gave a GI50 (IGROV-1) of 0.316 µM, an LC50 (IGROV-1) of over 100 µM and a growth at 0.01 µM (IGROV-1) of 116%. For the same compound, the TGI (IGROV-1) was 0.646 µM, the growth at 1 µM [8] was 80% and the Activity (COLO 205 [9]) was 52%. The growth at 0.1 µM (NCI-H226) was 97%, the growth at 100 µM (MDA-MB-468 [10]) was -34% and the growth at 1 µM (MDA-MB-435) was 50%. For the same compound, the growth at 0.1 µM (Malme-3M) was 129%, the Activity (COLO 205 [11]) was 66% and the growth at 0.1 µM (K562) was 99%. It also gave a growth at 0.1 µM (A498) of 61%, a GI50 [12] of 0.234 µM and an LC50 [12] of 4.79 µM. For the same compound, the growth at 0.01 µM [12] was 88%, the TGI [12] was 0.646 µM and the growth at 1 µM (U-251) was -64%. For the same compound, the growth at 1 µM [13] was 54%, the growth at 1 µM [14] was 86% and the GI50 (DU-145 [15]) was 0.447 µM. The LC50 (DU-145 [15]) was over 100 µM, the growth at 0.01 µM (DU-145 [15]) was 106% and the TGI (DU-145 [15]) was 18.6 µM. It also gave a growth at 100 µM (A549) of -33%, a growth at 1 µM (HOP-62) of 5% and a growth at 1 µM (MDA-MB-468 [16]) of 55%.
